# Laboratory results reported in US20210283139A1, “BIFUNCTIONAL MOLECULES FOR TARGETING UCHL5” (AMPHISTA THERAPEUTICS LTD, priority 2018, published 2021).
# Legend:
# Format in all cases: cell-based
# Brd4 [1] = target: T1, Brd4 (Homo sapiens, UniProt O60885); assay: Negative SAR: Brd4 immunoblot in HEK293 cells, active vs negative control; conditions: HEK293, 1 μM, 6 h, three independent treatments
# T1 construct: endogenous in cells; host or cells: HEK293, HAP1, MV4-11
# Description: (§1) Immunoblotting. proteins were separated by SDS-PAGE on NuPage 4-12% Bis-Tris gels, followed by transfer to Amersham Protran 0.45 NC nitrocellulose membrane (GE Healthcare) using wet transfer. Membranes were blocked using 5% w/v milk in Tris-buffered saline (TBS) with 0.1% Tween-20. Blots were probed (overnight at 4° C.) using anti-Brd2 (Abcam ab139690, 1:2,000 dilution), anti-Brd3 (Abcam ab50818, 1:500 dilution), and anti-Brd4 (Abcam ab128874, 1:1,000 dilution) primary antibodies, as appropriate. The next day, blots were washed with TBST and incubated (1 hr at RT) with anti-Tubulin hFAB-rhodamine (BioRad, 12004166) primary antibody, and either anti-rabbit IRDye 800CW (Licor 1:10,000 dilution) or anti-mouse IRDye 800CW (Licor 1:10,000 dilution) secondary antibody. Blots were developed using a Bio-Rad ChemiDoc MP Imaging System, and band quantification was performed using Image Studio software (LiCor). Band intensities were normalized to the tubulin loading control and reported as % of the average 0.1% DMSO vehicle intensity. Degradation data was plotted and analysed using Prism (Graphpad, version 8).
# HEK293 (1×10^6) cells incubated with DMSO, 1 μM 05IB11 or 1 μM 05IB6 for 6 h with a final DMSO concentration of 0.1% v/v. Cells from three independent treatments (n=3) were lysed with RIPA buffer and immunoblotted for Brd4 and β-tubulin.
# Brd4 [2] = target: T1, Brd4; assay: Proteasome dependency of Brd4 degradation in HEK293 cells (bortezomib pre-treatment); conditions: 6 h
# Description: as §1
# (§2) HEK293 (1×10^6) cells were seeded in standard 6-well plates (2 mL medium) overnight before pre-treatment with 10 μM bortezomib. After a 0.5 h pre-incubation time, cells were subsequently treated with vehicle, 1 μM MZ1 or 1 μM 05IB6, yielding a final overall DMSO concentration of 0.2% v/v. After 6 h incubation, cells were washed with DPBS (Gibco) and lysed using 85 μL RIPA buffer (Sigma-Aldrich) supplemented with cOmplete Mini EDTA-free protease inhibitor cocktail (Roche) and benzonase. Lysates were clarified by centrifugation (20,000 g, 10 min, 4° C.) and the total protein content of the supernatant was quantified using a Bradford colorimetric assay. Samples were prepared using equal amounts of total protein and LDS sample buffer (Invitrogen).
# Brd4 [3] = target: T1, Brd4; assay: Mechanistic evaluation of Brd4 degradation in HAP1 cells (bortezomib, degrasyn or I-BET726 pre-treatment); conditions: 6 h
# Description: as §1
# as §2, with “HAP1 (1×10^6)” for “HEK293 (1×10^6)”, “with inhibitors (10” for “with 10”, “μM bortezomib, 5 μM degrasyn or 1 μM I-BET726).” for “μM bortezomib.”, “vehicle, 0.1” for “vehicle, 1”, “or 0.1” for “or 1”, “μM 05IB9,” for “μM 05IB6,”
# Representative blots from HAP1 lysates in FIG. 9 show depletion of Brd4 protein levels following 6 h treatment with 0.1 μM 05IB9 or MZ1, in the presence and absence of 5 μM degrasyn and 10 μM bortezomib. Brd4 band intensities were normalized to β-tubulin loading control and reported in FIG. 9B as % of the average 0.1% DMSO vehicle intensity. Each bar is mean±SEM of three independent experiments performed in duplicate (n=3). […] Furthermore, excess […] competes with 05IB9, resulting in reduced degradation of Brd4.
# c-MYC = assay: Immunoblot of c-MYC levels in MV4-11 cells; conditions: MV4-11, 6 h
# Description: (§3) MV4-11 (0.7×10^6 cells/mL) were seeded in 10 cm plates (10 mL DMEM supplemented with 10% FBS and L-glutamine) overnight before treatment with compounds at the desired concentration and with a final DMSO concentration of 0.1% v/v. After 6 h incubation time, cells were washed 2× with DPBS (Gibco) and lysed using 85 μL RIPA buffer (Sigma-Aldrich) supplemented with cOmplete Mini EDTA-free protease inhibitor cocktail (Roche) and benzonase. Lysates were clarified by centrifugation (20,000 g, 10 min, 4° C.) and the total protein content of the supernatant was quantified using a Bradford colorimetric assay. Samples were prepared using equal amounts of total protein and LDS sample buffer (Invitrogen). For immunoblot analysis, the following antibodies were used: anti-Brd2 (ab139690, 1:2,000 dilution), anti-Brd3 (ab50818, 1:500 dilution), anti-Brd4 (ab128874, 1:1,000 dilution), anti-c-myc (ab32072, 1:1,000 dilution), anti- total PARP (BD Bioscience #556494; 1:1,000 dilution), anti-cleaved PARP (CST-9541T, 1:1,000 dilution), and anti-Tubulin hFAB-rhodamine (BioRad, 12004166, 1:10,000 dilution).
# Brd4 [4] = target: T1, Brd4; assay: Mechanistic evaluation of Brd4 degradation in HEK293 cells (degrasyn or I-BET726 pre-treatment); conditions: 6 h
# Description: as §1
# as §2, with “with inhibitors (5” for “with 10”, “μM degrasyn or 1 μM I-BET726).” for “μM bortezomib.”, “vehicle, 0.1” for “vehicle, 1”, “or 0.1” for “or 1”, “μM 05IB9,” for “μM 05IB6,”
# Brd4 [5] = target: T1, Brd4; assay: Immunoblot in MV4-11 cells; conditions: MV4-11, 6 h, increasing concentrations
# Description: as §3
Brd4 levels (Brd4 [1]),"Brd4 degradation in the presence of bortezomib (Brd4 [2]; HEK293, 1 μM compound, 0.5 h pre-treatment with 10 μM bortezomib)","Brd4 protein levels (Brd4 [2]; HEK293, 1 μM)","Brd4 protein levels (Brd4 [3]; HAP1, 0.1 μM)","Brd4 protein levels (Brd4 [4]; HEK293, 0.1 μM)",Brd4 levels (Brd4 [5]),Structure (SMILES),"Brd4 degradation in the presence of bortezomib or degrasyn (Brd4 [3]; HAP1, 0.1 μM compound, 0.5 h pre-treatment with 10 μM bortezomib or 5 μM degrasyn)",decrease in c-MYC compared with inhibitor and negative control (c-MYC),c-MYC levels (c-MYC; increasing concentrations),"Brd4 degradation in the presence of degrasyn or I-BET726 (Brd4 [4]; HEK293, 0.1 μM compound, 0.5 h pre-treatment with 5 μM degrasyn or 1 μM I-BET726)"
significant depletion,completely blocked,depletion,–,–,–,CCCC(NC(=O)/C(C#N)=C/c1cccc(Br)n1)c1ccc(OCCOCCOCCOCCOCCOCCOCCNC(=O)c2ccc(-c3ccc4c(c3)[C@H](Nc3ccc(Cl)cc3)C[C@H](C)N4C(C)=O)cc2)cc1 (stereo partly shown) [Example 05IB6],–,–,–,–
–,–,–,depletion,depletion,depletion,CCCC(NC(=O)/C(C#N)=C/c1nccs1)c1ccc(OCCOCCOCCOCCOCCOCCOCCNC(=O)c2ccc(-c3ccc4c(c3)[C@H](Nc3ccc(Cl)cc3)C[C@H](C)N4C(C)=O)cc2)cc1 (stereo partly shown) [Example 05IB9],completely blocked in the presence of bortezomib and degrasyn,greater than inhibitor (I-BET726) alone and the negative control (05IB11),depletion,completely blocked in the presence of either degrasyn or I-BET726
